Test results reported in publication PMC8397425, “A Strategy to Conjugate Bioactive Fragments to Cytotoxic Diiron Bis(cyclopentadienyl) Complexes” (Organometallics, 2021).

Assays:
[1] = system: A2780 cells; experiment: Intracellular ROS production, DCFH-DA assay; format: cell-based, human; conditions: for ROS production compared to H2O2 positive control: 10 μM compound vs H2O2 100 μM, 24 h; for intracellular ROS levels: 10 μM, up to 24 h, DCFH-DA fluorescence
Protocol: In order to shed light on the possible mechanism of action of the biofunctionalized diiron complexes, a series of complementary studies were performed. It was previously shown that the diiron vinyliminium structural motif induces ROS production, possibly associated with more than one mechanism: (1) monoelectron reduction of the complex favored by its net cationic charge; (2) fragmentation into a monoiron derivative and atomic iron; […] After overnight incubation, the cells were treated following the manufacturer’s protocol. […] Stock solutions of compounds were prepared as described above; cells incubated with equal amounts of DMSO in supplemented RPMI were used as a control. The fluorescence was measured up to 24 h with an excitation wavelength of 485 nm and with a 535 nm emission filter by Multilabel Counter (PerkinElmer, Waltham, MA, USA). The measurements were performed in triplicate, and results were reported as mean ± SD. Statistical differences were examined using one-way analysis of variance (ANOVA), and a Tukey test was used for post hoc analysis.

[2] = system: Human Embryonic Kidney 293T (HEK 293T) cell line; experiment: MTT cytotoxicity, HEK 293T; format: cell-based; conditions: 72 h exposure, mean ± SD
Source text: Human ovarian carcinoma (A2780 and A2780cisR) cell lines were obtained from the European Collection of Cell Cultures. The Human Embryonic Kidney 293T (HEK 293T) cell line was obtained from the ATCC (Sigma, Buchs, Switzerland). Penicillin–streptomycin, RPMI 1640 GlutaMAX (where RPMI = Roswell Park Memorial Institute), and DMEM GlutaMAX media (where DMEM = Dulbecco’s modified Eagle medium) were obtained from Life Technologies, and fetal bovine serum (FBS) was obtained from Sigma. The cells were cultured in RPMI 1640 GlutaMAX (A2780 and A2780cisR) and DMEM GlutaMAX (HEK 293T) media containing 10% heat-inactivated FBS and 1% penicillin–streptomycin at 37 °C and CO2 (5%). The A2780cisR cell line was routinely treated with cisplatin (2 μM) in the media to maintain cisplatin resistance. The cytotoxicity was determined using the 3-(4,5-dimethyl-2-thiazolyl)-2,5-diphenyl-2H-tetrazolium bromide (MTT) assay.[42] Cells were seeded in flat-bottomed 96-well plates as a suspension in a prepared medium (100 μL aliquots and approximately 4300 cells/well) and preincubated for 24 h. Stock solutions of compounds were prepared in DMSO and were diluted in the medium. The solutions were sequentially diluted to give a final DMSO concentration of 0.5% and a final compound concentration range of 0–200 μM. Cisplatin was tested as a positive (0–100 μM) control. The compounds were placed in the preincubated 96-well plates in 100 μL aliquots, and the plates were incubated for a further 72 h. MTT (20 μL, 5 mg/mL in Dulbecco’s phosphate buffered saline) was placed in the cells, and the plates were incubated for a further 4 h. The culture medium was aspirated, and the purple formazan crystals, formed by the mitochondrial dehydrogenase activity of vital cells, were dissolved in DMSO (100 μL/well). The absorbance of the resulting solutions, directly proportional to the number of surviving cells, was quantified at 590 nm using a SpectroMax M5e multimode microplate reader (using SoftMax Pro software, version 6.2.2). The percentage of surviving cells was calculated from the absorbance of wells corresponding to the untreated control cells. The reported IC50 values are based on the means from two independent experiments, each comprising four tests per concentration level.

[3] = system: natural double-stranded DNA from calf thymus; experiment: Ethidium bromide (EB) exchange test with DNA; format: binding; conditions: NaCl 0.1 M, NaCac 0.01 M, T = 25 °C; complex 1.4–135 μM
Protocol: The ability of [4]CF3SO3 and [9]CF3SO3 to interact with natural DNA was studied using the ethidium bromide (EB) exchange test (Figure 6), with the concentration of the complexes beingin the 1.5–124 μM range for [4]CF3SO3 and 1.4–135 μM for [9]CF3SO3. Blank experiments were carried out with the two bioactive molecules and also with DMSO to check for solvent/dilution effects. […] However, EB exchange titrations are suitable to recognize fast noncovalent binding events, but not subsequent slow covalent binding. […]
Ethidium bromide (EB, ≥98.0%), bovine serum albumin (BSA, lyophilized powder, crystallized, ≥98.0%), and natural double-stranded DNA from calf thymus (DNA, lyophilized powder, Na^+ salt in the form of fibers) were purchased from Merck, while anhydrous guanosine 5′-monophosphate disodium salt (Na2[GMP], >98.0%) was purchased from TCI Chemicals. […] Molar concentrations of solutions of EB (CEB), BSA (CBSA), and DNA (CDNA) were determined by absorbance measurements (εEB^480 nm = 5700 M^–1 cm^–1; εBSA^278 nm = 44000 M^–1 cm^–1; εDNA^260 nm = 13200 M^–1 cm^–1 for a concentration expressed in base pairs). […] In EB/DNA exchange experiments, EB was added to DNA until the fluorescence emission at λex = 520 nm/λem = 595 nm (diagnostic wavelengths for the DNA-intercalated EB only) started to reach the plateau (CEB = 5.60 × 10^–5 M, CDNA = 1.15 × 10^–4 M). […]

Row | Substance | ROS production compared to H2O2 positive control [1] | intracellular ROS levels [1] | IC50 [2] | interaction with natural DNA (EB displacement) [3]
1 | [Fe2Cp2(CO)(μ-CO){μ-η^1:η^3-Cγ(3-C6H4NHC(=O)(CH2)3C6H4N(CH2CH2Cl)2)CβHCαNMe2}]CF3SO3 [[9]CF3SO3] | ROS production higher than that recorded for H2O2 | Significant intracellular ROS levels | 9 ± 3 µM | interact weakly with natural DNA
2 | [Fe2Cp2(CO)(μ-CO){μ-η^1:η^3-Cγ(3-C6H4OC(=O)C6H4OC(=O)Me)CβHCαNMe(Xyl)}]CF3SO3 [[4]CF3SO3] | ROS production higher than that recorded for H2O2 | Significant intracellular ROS levels | 3.8 ± 0.7 µM | interact weakly with natural DNA
